Results from patent US12527785B2, “Renin-angiotensin-aldosterone system (RAAS) inhibitors in the treatment of pancreatic ductal carcinoma” (OCHSNER CLINIC FOUNDATION, priority 2023, dated 2026).

Tests used:
[1] = test system: PANC-1 tumor orthotopic xenograft; test: PANC-1 tumor orthotopic xenograft mouse model (BLI tumor burden, tumor weight); format: in vivo; conditions: four weeks; for Tumor weight, % of control / Tumor weight, mean: Table 19; for Tumor weight, mean: control 0.425; for BLI data, mean: control 3.003
Description: Human PDCA cell line PANC-1 was transduced with pre-made lentiviral vectors encoding luciferase (firefly)/red fluorescent protein (RFP) to enable monitoring of the growth of primary tumor and metastasis. […] For in vivo experiments, Nonobese diabetic/severe combined immunodeficiencyNOD-SCID mice (Jackson Labs, Bar Harbor, ME, or inhouse breeding) were first brought under anesthesia with isoflurane (2.5% in 100% oxygen, 1 L/min) in an induction chamber and maintained under adequate anesthesia (isoflurane inhalation) while being laid on a warming pad throughout the surgical procedure. For tumor generation, 5×10^4 luciferase-tagged PANC-1 cells were co-inoculated with 3×10^5 lymph node stromal cell (LNSC) analog HK cells. The mice received a 0.75-1.2 cm long incision (on the left side of the body slightly medial to the splenic silhouette) to exteriorize the spleen and pancreas. While gently retracting the pancreas laterally, a 30 G needle was inserted along the length of the pancreas from the tail to the pancreatic head region. Then, 10 μl of cell suspension was injected as the needle was withdrawn to the mid-body of the pancreas. The needle was removed, and the area was inspected for leakage and bleeding. The pancreas and spleen were internalized with forceps and the abdominal muscle layer was closed with interrupted stitches (3-0 silk suture). The overlying skin was closed with a second set of interrupted stitches. Buprenorphine SR-LAB was injected subcutaneously immediately after the surgery for pain relief.
After the surgery, tumor growth and metastatic tumor burden were monitored and assessed weekly for luciferase activity by bioluminescence imaging (BLI) using Lago Imaging System (Spectral Instruments Imaging, Tucson, AZ). Mice were anesthetized using isoflurane for all imaging procedures. Mice were administered intraperitoneally with luciferin (10 mg/kg) and imaged in 10-20 minutes for maximum luciferase signal plateau. Images were analyzed using Aura Imaging software. Once the BLI levels of xenografted tumor reached 5×10^8 photons (around 7-9 weeks post PANC-1 cell injection), the mice were grouped based on their BLI level and compounds (e.g., drugs) of the present disclosure were given by gavage daily to each group for 4 weeks. […] Upon sacrifice after 4 weeks of treatment, primary tumors and mouse organs were harvested, weighed, imaged, and formalin-fixed for (hematoxylin and eosin) H&E and immunohistochemistry staining. Data was statistically analyzed using t-test, or t-test with Bonferroni correction.

[2] = mouse, in vivo; cited from earlier work
PANC-1 cells = test: WST1 cell proliferation assay, PANC-1 cells; format: cell-based, human
Experimental: (§1) PDA cell line (PANC-1 or HS766T) or patient cancer cells (PaCa9) were trypsinized with 1% trypsin in Hank's Balanced Salt Solution (HBSS), counted, washed, and resuspended in serum free AIM media (ThermoFisher Scientific, Waltham, MA) or complete Dulbecco's Modified Eagle Medium (DMEM) supplemented with 10% fetal bovine serum, […], 100 U/ml of penicillin G, and […] of streptomycin. Cells at a concentration of 2-4×10^4 cells/well in 100 μl culture medium were seeded in triplicate in 96 well plates, then cultured in a humidified incubator at 37° C. and 5% CO2. On the next day, cell supernatant was discarded and compounds (e.g., drugs) of the present disclosure in 200 μl medium were added with the concentrations indicated in the following Examples. After 72 hours of culture, cell proliferation reagent WST1 (20 μl/well, Sigma Aldrich Inc, St. Louis, MO) were added and plates were read using an ELISA reader at 2 hours and 4 hours under the wavelength of 450 nm. The measured absorbance (OD value) was recorded and graphed and statistically analyzed using GraphPad Prism 8, t-test, or t-test with Bonferroni correction.

[3] = test system: PaCa-9 PDAC patient tumor cells; test: WST1 cell proliferation assay, PaCa-9 PDAC patient tumor cells; format: cell-based, human; conditions: for cell proliferation, WST1 absorbance (OD value, 450 nm), mean: 10% FCS-DMEM
Experimental: as §1, with “Louis, MO) were added and plates were read using an ELISA reader at 2 hours and 4 hours under the wavelength of 450 nm.” left out

[4] = test system: PDCA cells (PANC-1, HS766T, PaCa9); test: In vitro PDCA cell proliferation (WST1), summary statements over the cell lines tested; format: cell-based
Experimental: as §1

HS766T cells = test: WST1 cell proliferation assay, HS766T cells; format: cell-based
Experimental: as §1

[5] = 0.1 mg/kg by subcutaneous injection; cited from earlier work
[6] = Candesartan Cilexitil (60 mg/kg)

CCOc1nc2cccc(C(=O)OC(C)OC(=O)OC3CCCCC3)c2n1Cc1ccc(-c2ccccc2-c2nnn[nH]2)cc1 (stereo not shown) [Candesartan Cilexitil]
Tumor weight, % of control [1, 6]: 38% | Tumor weight, mean [1, 6]: 0.163 g | Safety of oral administration to mice [2]: safely

CCOc1nc2cccc(C(=O)O)c2n1Cc1ccc(-c2ccccc2-c2nnn[nH]2)cc1 [Candesartan]
Effective (statistically significant, p<0.05, decrease in cell proliferation by WST1 assay) (PANC-1 cells; 20 μM): effective | cell proliferation, WST1 absorbance (OD value, 450 nm), mean (PANC-1 cells; Candesartan 20 μM, Table 5A, 10% FCS-DMEM, 2×10^4 cells per well, Medium/DMSO 3.348): 0.612 | BLI data, % of control ([1]; Candesartan (30 mg/kg)): 67% | BLI data, mean ([1]; Candesartan (30 mg/kg)): 2.016 | Effective (statistically significant, p<0.05, decrease in cell proliferation by WST1 assay) ([3]; 20 μM): effective | cell proliferation, WST1 absorbance (OD value, 450 nm), mean ([3]; Candesartan 10 μM, Table 3, 1 h, Medium/DMSO 3.571): 3.694 | cell proliferation, WST1 absorbance (OD value, 450 nm), mean ([3]; Candesartan 20 μM, Table 7A, 2×10^4 cells per well, control 3.535): 0.464 | Minimum effective dose (concentration) in vitro ([4]; PANC-1, Hs766T and PaCa9 cells): ~20 µM | Change in cellular proliferation ([4]; candesartan 10 μM): no statistical change in cellular proliferation | Effective (statistically significant, p<0.05, decrease in cell proliferation by WST1 assay) (HS766T cells; 20 μM): effective | cell proliferation, WST1 absorbance (OD value, 450 nm), mean (HS766T cells; Candesartan 10 μM, Table 2, 2 h, 10% FCS-DMEM, control 3.214): 2.856 | cell proliferation, WST1 absorbance (OD value, 450 nm), mean (HS766T cells; Candesartan 20 μM, Table 6A, 10% FCS-DMEM, 2×10^4 cells per well, control 3.339): 0.620

CCCCc1nc(Cl)c(CO)n1Cc1ccc(-c2ccccc2-c2nn[nH]n2)cc1 [Losartan]
cell proliferation, WST1 absorbance (OD value, 450 nm), mean (PANC-1 cells; Losartan 100 μM, Table 1, 2 h, 10% FCS-DMEM, control 3.618): 2.507 | cell proliferation, WST1 absorbance (OD value, 450 nm), mean (PANC-1 cells; Losartan 100 μM, Table 5A, 10% FCS-DMEM, 2×10^4 cells per well, Medium/DMSO 3.348): 3.699 | BLI data, % of control ([1]; Losartan (60 mg/kg)): 73% | Tumor weight, % of control ([1]; Losartan (60 mg/kg)): 87% | Tumor weight, mean ([1]; Losartan (60 mg/kg)): 0.3691 g | BLI data, mean ([1]; Losartan (60 mg/kg)): 2.199 | cell proliferation, WST1 absorbance (OD value, 450 nm), mean ([3]; Losartan 100 μM, Table 3, 1 h, Medium/DMSO 3.571): 3.392 | cell proliferation, WST1 absorbance (OD value, 450 nm), mean ([3]; Losartan 100 μM, Table 7A, 2×10^4 cells per well, control 3.535): 3.161 | Change in cellular proliferation ([4]; losartan 100 μM): no statistical change in cellular proliferation | cell proliferation, WST1 absorbance (OD value, 450 nm), mean (HS766T cells; Losartan 100 μM, Table 2, 2 h, 10% FCS-DMEM, control 3.214): 2.992 | cell proliferation, WST1 absorbance (OD value, 450 nm), mean (HS766T cells; Losartan 100 μM, Table 6A, 10% FCS-DMEM, 2×10^4 cells per well, control 3.339): 3.182

Cc1cc(Cn2cnc3c2C[C@@H](C(=O)O)N(C(=O)C(c2ccccc2)c2ccccc2)C3)ccc1N(C)C [PD123319]
cell proliferation, WST1 absorbance (OD value, 450 nm), mean (PANC-1 cells; 10 μM, Table 8, 2 h, DMEM-10% FCS, control 3.922): 2.724 | cell proliferation, WST1 absorbance (OD value, 450 nm), mean (PANC-1 cells; 10 μM, Table 10, 2 h, serum free media, control 3.443): 2.120 | cell proliferation, WST1 absorbance (OD value, 450 nm), mean (PANC-1 cells; 10 μM, Table 12, 2 h, 10% FCS DMEM, N = 6, control 3.37): 2.823 | cell proliferation, WST1 absorbance (OD value, 450 nm), mean (PANC-1 cells; 10 μM, Table 14, 2 h, serum free media, N = 6, control 1.208): 1.048 | cell proliferation, WST1 absorbance (OD value, 450 nm), mean (PANC-1 cells; 30 μM, Table 8, 2 h, DMEM-10% FCS, control 3.922): 2.60 | cell proliferation, WST1 absorbance (OD value, 450 nm), mean (PANC-1 cells; 30 μM, Table 10, 2 h, serum free media, control 3.443): 1.970 | cell proliferation, WST1 absorbance (OD value, 450 nm), mean (PANC-1 cells; 30 μM, Table 12, 2 h, 10% FCS DMEM, N = 6, control 3.37): 2.854 | cell proliferation, WST1 absorbance (OD value, 450 nm), mean (PANC-1 cells; 30 μM, Table 14, 2 h, serum free media, N = 6, control 1.208): 0.7668 | cell proliferation, WST1 absorbance (OD value, 450 nm), mean (PANC-1 cells; 50 μM, Table 8, 2 h, DMEM-10% FCS, N = 1, control 3.922): 1.951 | cell proliferation, WST1 absorbance (OD value, 450 nm), mean (PANC-1 cells; 50 μM, Table 10, 2 h, serum free media, control 3.443): 2.146 | cell proliferation, WST1 absorbance (OD value, 450 nm), mean (PANC-1 cells; 50 μM, Table 12, 2 h, 10% FCS DMEM, N = 6, control 3.37): 2.873 | cell proliferation, WST1 absorbance (OD value, 450 nm), mean (PANC-1 cells; 50 μM, Table 14, 2 h, serum free media, N = 6, control 1.208): 0.728 | Activity in rats [5]: active | Effective in inhibiting PDCA cell proliferation in vitro ([4]; 10 μM, 30 μM, and 50 μM, presence or absence of serum): effective | cell proliferation, WST1 absorbance (OD value, 450 nm), mean (HS766T cells; 10 μM, Table 9, 2 h, DMEM-10% FCS, control 2.025): 1.336 | cell proliferation, WST1 absorbance (OD value, 450 nm), mean (HS766T cells; 10 μM, Table 11, 2 h, serum free media, control 2.0695): 1.24 | cell proliferation, WST1 absorbance (OD value, 450 nm), mean (HS766T cells; 10 μM, Table 13, 2 h, 10% FCS DMEM, control 2.913): 2.895 | cell proliferation, WST1 absorbance (OD value, 450 nm), mean (HS766T cells; 10 μM, Table 15, 2 h, serum free media, N = 6, control 1.906): 1.708 | cell proliferation, WST1 absorbance (OD value, 450 nm), mean (HS766T cells; 30 μM, Table 11, 2 h, serum free media, control 2.0695): 1.397 | cell proliferation, WST1 absorbance (OD value, 450 nm), mean (HS766T cells; 30 μM, Table 13, 2 h, 10% FCS DMEM, control 2.913): 2.555 | cell proliferation, WST1 absorbance (OD value, 450 nm), mean (HS766T cells; 30 μM, Table 15, 2 h, serum free media, N = 6, control 1.906): 1.56 | cell proliferation, WST1 absorbance (OD value, 450 nm), mean (HS766T cells; 50 μM, Table 11, 2 h, serum free media, control 2.0695): 1.235 | cell proliferation, WST1 absorbance (OD value, 450 nm), mean (HS766T cells; 50 μM, Table 13, 2 h, 10% FCS DMEM, control 2.913): 1.886 | cell proliferation, WST1 absorbance (OD value, 450 nm), mean (HS766T cells; 50 μM, Table 15, 2 h, serum free media, N = 6, control 1.906): 1.154

CC(=O)S[C@@H]1CC2=CC(=O)CC[C@]2(C)[C@H]2CC[C@@]3(C)[C@@H](CC[C@@]34CCC(=O)O4)[C@H]12 [Spironolactone]
Tumor weight, % of control ([1]; Spironolactone (100 mg/kg)): 69% | Tumor weight, mean ([1]; Spironolactone (100 mg/kg)): 0.292 g
